Test results reported in US20230069886A1, “AROMATIC SULPHONAMIDES DERIVATIVES THAT INHIBITS PDI A3, THEIR SYNTHESIS AND USE” (Uniwersytet Jagiellonski, priority 2020, published 2023).
≈ marks a conversion by molar mass, not a printed value.

Experiments:
HT-29 [1] = experiment: Sulforhodamine B antiproliferative assay, 72 h, HT-29; type: cell-based, human; settings: Homo sapiens, HT-29; normal (21% of oxygen), 72 hours exposition; read-out: IC50 [μg/ml] HT-29 normal
Description: (§1) Anticancer activity of selected compounds of invention, PDI A3-inhibitors has been also tested in vitro in antiproliferative assay in normoxic and hypoxic conditions as well in estrogen-stimulated cancer cells. In the experiment, cells were seeded on 96-well plates (Sarstedt, Germany) in appropriate culture medium at a density of 10^5 cells/mL 24 h before adding the tested compounds. Cells were treated with each compound in four concentrations in the range 0.1-100 μg/mL. […] After 72 h of compound treatment at 37° C., 5% CO2 humid atmosphere and in wo different oxygen level conditions: 21%—normal and <1%—hypoxia. In some experiments the MDA-MB-231 and MCF-7 cells were seeded with or without 200 nM estradiol and after 24 h the tested compounds were added. A previously described sulforhodamine B antiproliferative assay was used with minor modifications (Skehan P et al., 1990). Briefly, cells were fixed with 50 μL/well of 50% (w/v) trichloroacetic acid (Avantor Performance Materials, Gliwice, Poland). After 1 h incubation, plates were washed several times with tap water and 50 μL of 0.4% (w/v) solution of sulforhodamine B (Sigma-Aldrich, Germany) in 1% (v/v) acetic acid (Avantor Performance Materials, Gliwice, Poland) was added to each well. After 30 min incubation at room temperature, unbound dye was washed out with 1% (v/v) acetic acid, whereas bound dye was solubilized with 10 mM unbuffered TRIS (Avantor Performance Materials, Gliwice, Poland) solution. The entire procedure was performed using a BioTek EL-406 washing station (BioTek Instruments, USA). After additional 30 min, absorbance was read using a Biotek Hybrid H4 reader (BioTek Instruments, USA) at 540 nm wavelength. MTT assay was used alternatively for HL-60 cell line and in the experiment in which estrogens are added (specified in the table legend). Absorbance was measured using a Biotek Hybrid H4 reader at 570 nm wavelength for MTT assay.
(§2) Compounds at each concentration were tested in triplicate in a single experiment and each experiment was repeated at least three times independently. Results are presented as mean IC50±SD.

CaCo-2 [2] = experiment: Sulforhodamine B antiproliferative assay, 72 h, Caco-2; type: cell-based, human; settings: Homo sapiens, Caco-2; normal (21% of oxygen), 72 hours exposition; read-out: IC50 [μg/ml] Caco-2 normal
Description: In the experiment, cells were seeded on 96-well plates (Sarstedt, Germany) in appropriate culture medium at a density of 10^5 cells/mL 24 h before adding the tested compounds. Cells were treated with each compound in four concentrations in the range 0.1-100 μg/mL. […] Briefly, cells were fixed with 50 μL/well of 50% (w/v) trichloroacetic acid (Avantor Performance Materials, Gliwice, Poland). After 1 h incubation, plates were washed several times with tap water and 50 μL of 0.4% (w/v) solution of sulforhodamine B (Sigma-Aldrich, Germany) in 1% (v/v) acetic acid (Avantor Performance Materials, Gliwice, Poland) was added to each well. After 30 min incubation at room temperature, unbound dye was washed out with 1% (v/v) acetic acid, whereas bound dye was solubilized with 10 mM unbuffered TRIS (Avantor Performance Materials, Gliwice, Poland) solution. […] After additional 30 min, absorbance was read using a Biotek Hybrid H4 reader (BioTek Instruments, USA) at 540 nm wavelength.

MCF-7 [3] = experiment: Sulforhodamine B antiproliferative assay, 72 h, normal/hypoxia, MCF-7; type: cell-based, human; settings: for IC50: Homo sapiens, MCF7, 72 hours exposition
Description: as §1, §2

MDA-MB-231 [4] = experiment: Sulforhodamine B antiproliferative assay, 72 h, normal/hypoxia, MDA-MB-231; type: cell-based, human; settings: Homo sapiens, MDA-MB-231, 72 hours exposition
Description: as §1, §2

HL-60 = experiment: MTT antiproliferative assay, 72 h, HL-60; type: cell-based, human; settings: Homo sapiens, HL-60, 72 hours exposition, read-out: IC50 [μg/ml] HL-60 normal
Description: as §1, §2

MCF-10A = experiment: Selectivity index MCF-10A versus MCF-7; type: cell-based; settings: 72 hours exposition
Description: as §1
Compounds at each concentration were tested in triplicate in a single experiment and each experiment was repeated at least three times independently. […]

MDA-MB-231 [5] = experiment: MTT antiproliferative assay, 72 h, with or without estradiol, MDA-MB-231; type: cell-based, human; settings: for IC50: Homo sapiens, MDA-MB-231, 72 hours exposition, MTT
Description: as §1, §2

HT-29 [6] = experiment: MTT antiproliferative assay, 72 h, HT-29; type: cell-based, human; settings: Homo sapiens, HT-29, 72 hours exposition, read-out: IC50 [μg/ml] HT-29 normal
Description: as §1, with “A previously described sulforhodamine B antiproliferative assay was used with minor modifications (Skehan P et al., 1990).” left out, “MTT assay was used alternatively for HL-60 cell line and in the experiment in which estrogens are added (specified in the table legend).” left out
as §2

MCF-7 [7] = experiment: MTT antiproliferative assay, 72 h, with or without estradiol, MCF-7; type: cell-based, human; settings: for IC50: Homo sapiens, MCF7, 72 hours exposition, MTT
Description: as §1, §2

MDA-MB-231 [8] = experiment: MTT antiproliferative assay, 48 h, MDA-MB-231; type: cell-based, human
Description: (§3) Anticancer activity of compounds of invention, PDI A3-inhibitors has been tested in vitro in classical antiproliferative assay in various cancer cells lines. Monolayer tumor cell lines MDA-MB-231 (human mammary breast adenocarcinoma), MCF-7 (human breast adenocarcinoma, estrogen-positive), HT-1080 (human fibrosarcoma) and Caco-2 (human colon adenocarcinoma) were cultured in standard medium DMEM (Dulbecco's modified Eagle's medium) (“Sigma”) supplemented with 10% foetal bovine serum (“Sigma”). About 2000-4000 cells per well (depending on line nature) were placed in 96-well plates and after 24 h compounds were added to the wells. Untreated cells were used as a control. The plates were incubated for 48 h, 37° C., 5% CO2. The number of surviving cells was determined using 3-(4,5-dimethylthiazol-2-yl)-2,5-diphenyltetrazolinium bromide (MTT). MTT-test: after incubating culture medium was removed and 200 μL fresh medium with 20 μL MTT (2 mg/mL in HBSS) was added in each well of the plate. After incubation (3 hr., 37° C., 5% CO2), the medium with MTT was removed and 200 μL DMSO were added at once to each sample. The samples were tested at 540 nm on Thermo Scientific Multiskan EX microplate photometer. The half-maximal inhibitory concentration (IC50) of each compound was calculated using Graph Pad Prism® 3.0.

MCF-7 [9] = experiment: MTT antiproliferative assay, 48 h, MCF-7; type: cell-based, human; settings: 48-hour exposition
Description: as §3

CaCo-2 [10] = experiment: MTT antiproliferative assay, 48 h, Caco-2; type: cell-based, human
Description: as §3

PDI A3 = target: T1, PDI A3 (Homo sapiens, UniProt P30101); experiment: PDI A3 inhibition, insulin turbidimetric assay; type: biochemical; settings: 10 ug/ml PDI A3, incubated 60 min at 37° C., turbidity at 650 nm; read-out: Inhibition of PDI A3 (EC 50)
T1 construct: purchased Mybiosource; host or cells: E. coli
T1 sequence (P30101 25-505): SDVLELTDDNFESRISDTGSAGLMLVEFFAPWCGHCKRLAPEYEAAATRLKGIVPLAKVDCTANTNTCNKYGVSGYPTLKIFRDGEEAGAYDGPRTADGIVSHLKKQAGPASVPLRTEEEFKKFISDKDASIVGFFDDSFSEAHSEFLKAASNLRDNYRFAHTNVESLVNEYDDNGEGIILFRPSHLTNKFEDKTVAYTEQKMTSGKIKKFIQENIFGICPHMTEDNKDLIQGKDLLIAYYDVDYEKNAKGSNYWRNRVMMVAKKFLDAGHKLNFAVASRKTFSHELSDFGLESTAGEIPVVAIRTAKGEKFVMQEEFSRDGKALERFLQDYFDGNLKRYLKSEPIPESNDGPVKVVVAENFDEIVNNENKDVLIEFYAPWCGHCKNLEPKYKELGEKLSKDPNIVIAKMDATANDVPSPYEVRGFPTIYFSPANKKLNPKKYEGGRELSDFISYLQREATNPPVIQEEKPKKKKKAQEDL
Description: The inhibitory effects compounds of invention on activity of PDIA3 was assess based on the insulin turbidimetric assay. Enzymatic activity of PDIA3 was confirmed by measuring the turbidity increase at 650 nm due to insulin reduction. The assay mixture was prepared by addition 10 ug/ml PDI A3 (E. coli recombinant protein; Mybiosource), […] phosphate buffer (pH7.6), 1 mM EDTA, 0.087 mM DTT and with or without tested compound and was incubated for 60 min, at 37° C. Reaction was started by addition of insulin and DTT. Final concentration of insulin and DTT in assay mixture were 0.15 mMv and 0.174 mMv, respectively. Turbidity was detected at 650 nm against reference samples without PDJs. The measurements were performed at 650 nm using 120-s recordings.

SMILES: NC(=O)C1CN1S(=O)(=O)c1ccc([N+](=O)[O-])cc1 (centres unmarked) [Compound C-3216, 1-(4-Nitrophenyl)sulfonylaziridine-2-carboxamide]
- IC50 (HT-29 [1]): 5.6 ± 0.9 µg/mL (≈ 20.6 µM)
- IC50 (CaCo-2 [2]): 4.5 ± 0.8 µg/mL (≈ 16.6 µM)
- IC50 (MCF-7 [3]; hypoxia (<1% of oxygen), read-out: IC50 [μg/ml] MCF-7 hypoxia): 3.6 ± 0.3 µg/mL (≈ 13.3 µM)
- IC50 (MCF-7 [3]; normal (21% of oxygen), read-out: IC50 [μg/ml] MCF-7 normal): 3.7 ± 0.4 µg/mL (≈ 13.6 µM)
- Antiproliferative effect, normoxic versus hypoxic conditions (MCF-7 [3]; MCF-7 and MDA-MB-231, Table 3): comparable
- IC50 (MDA-MB-231 [4]; hypoxia (<1% of oxygen), read-out: IC50 [μg/ml] MDA-MB-231 hypoxia): 6.2 ± 3.7 µg/mL (≈ 22.9 µM)
- IC50 (MDA-MB-231 [4]; normal (21% of oxygen), read-out: IC50 [μg/ml] MDA-MB-231 normal): 5 ± 1.4 µg/mL (≈ 18.4 µM)

SMILES: COC(=O)C1CN1S(=O)(=O)c1cccc2cc(N(C)C)ccc12 (centres unmarked) [Compound C-3375, Methyl 1-[[6-(dimethylamino)-1-naphthyl]sulfonyl]aziridine-2-carboxylate]
- IC50 (HL-60): 3.3 ± 0.2 µg/mL (≈ 9.87 µM)
- Selectivity index (SI): IC50 of MCF-10A/IC50 of MCF-7 (MCF-10A): 6.90
- IC50 (MDA-MB-231 [5]; not pretreated with estradiol, read-out: IC50 [μg/ml] MDA-MB-231 normal): 3.8 ± 0.1 µg/mL (≈ 11.4 µM)
- IC50 (MDA-MB-231 [5]; pretreated with 200 nM estradiol, read-out: IC50 [μg/ml] MDA-MB-231 +estradiol): 7 ± 1.1 µg/mL (≈ 20.9 µM)
- Sensitivity of MDA-MB-231 line after treatment with estradiol (MDA-MB-231 [5]; estradiol (200 nM), Table 4): slightly lower sensitivity
- IC50 (HT-29 [6]): 27.8 ± 7.5 µg/mL (≈ 83.1 µM)
- IC50 (MCF-7 [7]; not pretreated with estradiol, read-out: IC50 [μg/ml] MCF-7 normal): 3.5 ± 0.4 µg/mL (≈ 10.5 µM)
- IC50 (MCF-7 [7]; pretreated with 200 nM estradiol, read-out: IC50 [μg/ml] MCF-7 +estradiol): 3.4 ± 0.3 µg/mL (≈ 10.2 µM)
- Lower sensitivity after treatment with estradiol in MCF-7 (MCF-7 [7]; estradiol (200 nM), Table 4): not observed

SMILES: CCCCCCc1ccc(S(=O)(=O)N2CC2C(=O)N2CCOCC2)cc1 (centres unmarked) [Compound C-3517, [1-(4-Hexylphenyl)sulfonylaziridin-2-yl]-morpholino-methanone]
- IC50 (MDA-MB-231 [8]; Homo sapiens, MDA-MB-231, 48-hour exposition, read-out: Cytotoxicity, IC50, μM MDA-MB-231): 12 ± 1 µM

SMILES: CN(C)c1ccc2c(S(=O)(=O)N3CC3C(N)=O)cccc2c1 (centres unmarked) [Compound C-3459, 1-[[6-(Dimethylamino)-1-naphthyl]sulfonyl]aziridine-2-carboxamide]
- Cytotoxicity, IC50, μM MCF-7 (MCF-7 [9]): n.e.
- Cytotoxicity, IC50, μM MDA-MB-231 (MDA-MB-231 [8]; 48-hour exposition): n.e.
- Cytotoxicity, IC50, μM CaCo-2 (CaCo-2 [10]; 48-hour exposition): n.e.
- EC50 (PDI A3): 130 µM
- melting point: 197 to 199 °C

SMILES: COC(=O)C1CN1S(=O)(=O)c1ccc2cc(OC)ccc2c1 (centres unmarked) [Compound C-3327, Methyl 1-[(6-methoxy-2-naphthyl)sulfonyl]aziridine-2-carboxylate]
- IC50 (CaCo-2 [10]; Homo sapiens, Caco-2, 48-hour exposition, read-out: Cytotoxicity, IC50, μM CaCo-2): 150 ± 10 µM
